Reference: PubChem BioAssay (NCI)
“And” between values parts separate entries of the source, which are not always exact repeats. Equal entries are not always repeated.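 Protocol summary: plate cells (96-well), add compound at 5 concentrations, incubate 48 h, interpolate endpoints linearly. GI50 is the concentration that inhibits growth by half. At the TGI there is no net growth.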

What was measured:
Assay in all cases: DTP human tumour cell line panel, 48 h
HCT-116 colon = test system: HCT-116 colon
HT29 colon = test system: HT29 colon
NCI-H460 lung = test system: NCI-H460 lung
OVCAR-3 ovarian = test system: OVCAR-3 ovarian
OVCAR-5 ovarian = test system: OVCAR-5 ovarian
OVCAR-8 ovarian = test system: OVCAR-8 ovarian
RPMI-8226 leukemia = test system: RPMI-8226 leukemia
SNB-75 CNS = test system: SNB-75 CNS
UACC-62 melanoma = test system: UACC-62 melanoma
HOP-92 NSCLC = test system: HOP-92 NSCLC

| SMILES | GI50 (HCT-116 colon) [µM] | TGI (HCT-116 colon) | GI50 (HT29 colon) [µM] | TGI (HT29 colon) [µM] | GI50 (NCI-H460 lung) [µM] | TGI (NCI-H460 lung) | GI50 (OVCAR-3 ovarian) [µM] | TGI (OVCAR-3 ovarian) [µM] | GI50 (OVCAR-5 ovarian) [µM] | TGI (OVCAR-5 ovarian) [µM] | GI50 (OVCAR-8 ovarian) [µM] | TGI (OVCAR-8 ovarian) | GI50 (RPMI-8226 leukemia) [µM] | TGI (RPMI-8226 leukemia) [µM] | GI50 (SNB-75 CNS) [µM] | TGI (SNB-75 CNS) [µM] | GI50 (UACC-62 melanoma) [µM] | TGI (UACC-62 melanoma) [µM] | GI50 (HOP-92 NSCLC) [µM] | TGI (HOP-92 NSCLC) |
| --- | --- | --- | --- | --- | --- | --- | --- | --- | --- | --- | --- | --- | --- | --- | --- | --- | --- | --- | --- | --- |
| CCCc1cc(=O)[nH]c(-n2nc(C)cc2C)n1 | 3.3 | 67.3 µM | 6.68 | 38.5 | 1.26 | > 100 µM | 7.43 | > 100 | 28 | > 100 | 2.41 | > 100 µM | 5.16 | 28.4 | 40.3 | > 100 | 2.31 | 35.7 | – | – |
| COc1cccc(C2=C(c3c(C)n(C)c4ccccc34)C(=O)NC2=O)c1 | 19.7 | > 25 µM | 14.4 | > 25 | > 25 | > 25 µM | > 23.9 | > 25 | > 25 | > 25 | > 25 | > 25 µM | > 25 | > 25 | 6.63 | > 25 | 12.3 | > 25 | – | – |
| COc1ccc2c(c1)[n+]([O-])c(-c1ccc(OC)c(OC)c1)c(N)[n+]2[O-] | – | – | – | > 100 | – | > 100 µM | – | > 100 | – | > 100 | – | > 100 µM | – | > 100 | – | > 100 | – | > 100 | – | – |
| COc1ccc(/C=C/C(=O)c2ccc(O)c(CN3CCN(c4cc5c(cc4F)c(=O)c(C(=O)O)cn5C4CC4)CC3)c2)cc1 | 0.368 | > 100 µM | 1.08 | > 100 | 6.08 | > 100 µM | 1.97 | > 100 | 4.61 | > 100 | 0.644 | > 100 µM | – | – | 0.726 | 6.86 | 1.32 | > 100 | 1.23 | 6.21 µM |
| O=c1c2ccccc2c(=O)n2n1CC=CC2 | – | > 100 µM | – | > 100 | – | – | – | > 100 | – | > 100 | – | > 100 µM | – | > 100 | – | > 100 | – | > 100 | – | > 100 µM |
| COc1cccc2c1ccc1nc3cccc(C(=O)N[C@H](C)CN(C)C)c3nc12 | 0.0379 | 0.508 µM | 0.0427 | 0.365 | 0.0354 | 0.221 µM | 0.102 | 0.511 | 0.154 | 11.3 | 0.0528 | 9.5 µM | 0.0918 | 0.647 | 0.205 | 1.16 | 0.0447 | 0.198 | – | – |
| Clc1ccc(N=Nc2nc3ccccc3nc2N=Nc2ccc(Cl)cc2Cl)c(Cl)c1 | – | > 100 µM | – | > 100 | – | > 100 µM | – | > 100 | – | – | – | > 100 µM | – | > 100 | – | 93.4 | – | – | – | > 100 µM |
| NC(=O)c1ccccc1Nc1ccc2nnc(-c3ccncc3)n2n1 | 3.77 | 14.3 µM | 6.39 | 19.2 | 4.44 | 16.9 µM | 13.7 | 26.6 | 15.4 | 29.8 | 8.07 | 31.5 µM | 3.43 | 17.4 | 13.6 | 26.5 | 7.15 | 22.2 | – | – |
| C[C@]12CCc3sc(NCCc4ccccc4)nc3C1=CC[C@@H]1[C@@H]2CC[C@]2(C)C(=O)CC[C@@H]12 | 2.87 | 12.3 µM | 2.2 | 8.11 | 4.47 | > 100 µM | 2.08 | 4.83 | 4.44 | 65.9 | 2.77 | > 100 µM | 1.79 | 5.69 | – | – | 2.67 | 10.6 | 2.75 | 9.1 µM |
| O=C(Nc1cccc(-n2cc(-c3ccncc3)c(-c3cc(O)cc(Cl)c3)n2)c1)Nc1ccc(Cl)c(C(F)(F)F)c1 | 1.96 | 4.47 µM | 2.12 | 4.58 | 2.59 | 7.37 µM | 2.34 | 6.65 | 3.79 | 13.1 | 2.15 | 5.55 µM | 1.95 | 5.09 | 1.49 | 6.36 | 2.08 | 4.38 | – | – |
| c1ccc(C(c2ccccc2)c2cccnc2)cc1 | – | > 100 µM | – | > 100 | – | > 100 µM | – | > 100 | – | > 100 | – | > 100 µM | – | > 100 | – | > 100 | – | > 100 | – | – |
| COC(=O)/C(=N\NC(=O)C[N+](C)(C)C)C(C(=O)OC)C(=O)C(=O)Nc1ccccc1C(N)=O (stereo unspecified) | – | > 100 µM | – | > 100 | – | > 100 µM | – | > 100 | – | > 100 | – | – | – | > 100 | – | > 100 | – | > 100 | – | – |
| CN1CCN(CCOc2ccc(-c3cnc4c(-c5ccc(C(F)(F)F)cc5)cnn4c3)cc2)CC1 | 1.38 | 2.81 µM | 0.993 | 2.38 | 1.16 | 2.44 µM | 1.55 | 2.94 | 1.59 | 2.96 | 1.75 | 3.46 µM | – | – | 1.5 | 2.88 | 1.69 | 3.13 | 1.07 | 2.33 µM |
| COC1/C=C/C(C)C(C(C)C(OC)C(C)CCC(=O)C(C)C(C/C=C/N(C)C=O)OC)OC(=O)/C=C/C=C(\C)CC(OC)CC2=CC(=O)O[C@H](C2)C(C)C(OC)CC(OC)/C=C/C(C)C(OC)C1 (stereo partly specified) | 0.0066 | 0.115 µM and 0.0148 µM | 0.0236 | – | 0.01 | 0.118 µM and 0.097 µM | 0.0127 | 0.0307 | 0.119 | 0.714 | 0.0227 | 0.0768 µM and 0.196 µM | – | 0.0194 | – | – | 0.0515 | – | 0.0161 | 0.0489 µM and 0.0313 µM |
| CC(=O)C(=Cc1ccc(C=C(C(C)=O)C(C)=O)cc1)C(C)=O | – | 1.81 µM | – | 3.05 | – | 7.38 µM | – | 5 | – | 5.88 | – | 14.6 µM | – | 1.71 | – | – | – | 4.02 | – | 5.87 µM |
| Cc1ccc(SSc2ccc(C)cc2C(=O)O)c(C(=O)O)c1 | – | – | – | > 100 | – | > 100 µM | – | – | – | > 100 | – | > 100 µM | – | – | – | – | – | > 100 | – | > 100 µM |
